Earlier results in US20210069354A1, “METHOD OF TRANSPORTING AN AGENT ACROSS BLOOD-BRAIN, BLOOD-COCHLEAR OR BLOOD-CEREBROSPINAL FLUID BARRIER” (Oklahoma Medical Research Foundation, priority 2015, published 2021).

Conditions: normal brain

O=C([O-])CN(CCN(CC(=O)[O-])CC(=O)O)CCN(CC(=O)[O-])CC(=O)O.[Gd+3] [Gd-DTPA, gadolinium diethylene triamine penta acetic acid]
crossing of the BBB: does not cross the BBB
